Experimental data reported in ChEMBL document CHEMBL1201862, “PubChem BioAssay data set” (2004).
Calls of active or inactive are those of the source.

How the values were obtained:
[1] = molecular target: NACHT, LRR and PYD domains-containing protein 3 (Homo sapiens, UniProt Q96P20); assay: NALP3 inhibitors in yeast, dose response, luminescent (AID 488799); type: functional
[2] = toxicity toward cultured mammalian cells – cell-based, plate reader, cherry-pick samples, cytotoxicity control, dose response (AID 504397); type: functional
[3] = NIH-3T3 fibroblast cytotoxicity, dose response, cytotoxicity control, cell-based, fluorescence, Alamar Blue, secondary assay (AID 2327); type: functional;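 further: NIH-3T3 mouse fibroblasts cultured with fluconazole at 8 µg/mL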
[4] = fluconazole-exposed Candida albicans growth modulators – fluorescence, retest, confirmation (AID 2467); type: functional, cell-based
[5] = Trypanosoma cruzi growth suppression in host cells – NIH3T3 host cells, beta-gal luminescence, confirmation (AID 2044); type: functional, cell-based;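 further: intracellular parasites grown in NIH/3T3 mouse fibroblasts as host cells; luminescent beta-galactosidase reporter signal from transgenic T. cruzi replicating inside host cells; inhibitors lower the luminescence signal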
[6] = microbe, parasite or virus in culture; type: functional; details: Mycobacterium tuberculosis
[7] = NIH3T3 cell viability loss – ATP luminescence, mouse fibroblasts, counter-screen, dose response (AID 2010); type: functional, cell-based;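 further: cells exposed to compound for about 90 hours before reading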
[8] = Luminescence Cell-Based Dose Retest to Confirm Inhibitors of Cancer Stem Cells. [Related pubchem assays (depositor defined):AID2717, AID2721]; type: functional; details: Homo sapiens
[9] = molecular target: T1, Ubiquitin-conjugating enzyme E2 N (Homo sapiens, UniProt P61088); type: functional;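 further: Dose-response confirmation in a TR-FRET assay detecting UBC13-driven polyubiquitin chain formation, inhibition measured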
T1 sequence (P61088 whole entry): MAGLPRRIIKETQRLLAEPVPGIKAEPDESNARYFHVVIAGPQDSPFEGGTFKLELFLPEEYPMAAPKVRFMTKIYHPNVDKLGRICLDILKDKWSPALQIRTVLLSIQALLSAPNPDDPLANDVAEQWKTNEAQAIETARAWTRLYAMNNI

[10] = molecular target: Neurotensin receptor type 1 (Homo sapiens, UniProt P30989); type: functional;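 further: Image-based confirmatory dose-response assay measuring agonist activity at NTR1; NTR1-expressing U2OS osteosarcoma cells imaged for beta-arrestin GFP spot formation; agonist potency where compounds increase beta-arrestin recruitment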
Neurotensin receptor type 1, sequence (P30989 whole entry): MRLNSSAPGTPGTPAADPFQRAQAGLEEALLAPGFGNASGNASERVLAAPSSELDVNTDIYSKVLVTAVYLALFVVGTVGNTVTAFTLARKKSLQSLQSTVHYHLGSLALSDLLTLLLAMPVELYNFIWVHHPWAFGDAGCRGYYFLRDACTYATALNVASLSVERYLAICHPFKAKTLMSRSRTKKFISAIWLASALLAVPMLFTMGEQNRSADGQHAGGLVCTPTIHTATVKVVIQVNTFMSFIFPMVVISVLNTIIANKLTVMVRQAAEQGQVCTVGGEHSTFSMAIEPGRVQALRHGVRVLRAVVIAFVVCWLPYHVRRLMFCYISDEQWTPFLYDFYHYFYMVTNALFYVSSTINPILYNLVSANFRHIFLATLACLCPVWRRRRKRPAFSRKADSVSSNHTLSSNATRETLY

INS1 = assay: INS-1E survival protection against cytokine death – cell-based, luminescence, retest, dose response (AID 449756); type: functional; details: Rattus norvegicus;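 further: cell death triggered by IL-1 beta plus TNF-alpha plus IFN-gamma mixture; protective hits raise ATP signal compared with cytokine alone wells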
[11] = THP-1 cell cytotoxicity, dose response, cytotoxicity control for non-replicating M. tuberculosis project (AID 489025); type: functional
[12] = Vero E6 cell cytotoxicity, dose response, cytotoxicity control for non-replicating M. tuberculosis project, secondary assay (AID 492998); type: functional, VeroE6; details: Vero C1008
[13] = molecular target: T2, Short transient receptor potential channel 4 (Mus musculus, UniProt Q9QUQ5); assay: calcium entry via TRPC4 opening agents – cell-based, HEK293 TRPC4/mu-opioid, Fluo-4 calcium, dose response (AID 434937); type: functional
T2 sequence (Q9QUQ5 whole entry): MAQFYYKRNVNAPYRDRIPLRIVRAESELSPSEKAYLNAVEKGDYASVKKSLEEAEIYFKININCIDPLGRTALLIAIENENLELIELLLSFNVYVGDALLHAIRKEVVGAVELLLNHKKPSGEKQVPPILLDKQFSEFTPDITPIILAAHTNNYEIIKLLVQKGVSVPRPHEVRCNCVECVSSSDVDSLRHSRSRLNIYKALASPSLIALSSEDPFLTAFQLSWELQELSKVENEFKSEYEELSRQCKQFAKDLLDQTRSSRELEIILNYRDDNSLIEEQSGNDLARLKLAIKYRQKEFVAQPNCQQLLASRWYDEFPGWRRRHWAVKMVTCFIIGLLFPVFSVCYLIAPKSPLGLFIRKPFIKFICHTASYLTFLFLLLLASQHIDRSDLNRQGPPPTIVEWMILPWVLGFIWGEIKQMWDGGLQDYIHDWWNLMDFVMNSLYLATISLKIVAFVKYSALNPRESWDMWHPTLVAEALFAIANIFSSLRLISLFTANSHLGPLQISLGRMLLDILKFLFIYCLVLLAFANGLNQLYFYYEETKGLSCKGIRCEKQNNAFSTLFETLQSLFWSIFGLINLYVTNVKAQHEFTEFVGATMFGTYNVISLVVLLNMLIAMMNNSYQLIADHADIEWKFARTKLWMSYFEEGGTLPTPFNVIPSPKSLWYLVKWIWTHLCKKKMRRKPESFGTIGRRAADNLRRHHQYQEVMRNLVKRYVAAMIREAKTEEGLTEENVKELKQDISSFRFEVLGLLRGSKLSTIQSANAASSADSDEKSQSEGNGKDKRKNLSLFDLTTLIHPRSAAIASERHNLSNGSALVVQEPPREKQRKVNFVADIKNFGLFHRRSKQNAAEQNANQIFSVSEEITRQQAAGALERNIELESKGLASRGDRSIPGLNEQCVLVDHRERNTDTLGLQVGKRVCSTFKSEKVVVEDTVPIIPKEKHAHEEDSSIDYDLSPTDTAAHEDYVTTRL

cells = type: functional
Vero [14] = assay: cells; type: functional, cell-based; details: Chlorocebus sabaeus
Vero [15] = assay: cells; type: functional; details: Chlorocebus sabaeus
[16] = molecular target: T3, G-protein coupled receptor 35 (Homo sapiens, UniProt Q9HC97); assay: SAR analysis of Agonists of the GPR35 Receptor using an Image-Based Assay - Set 4. [Related pubchem assays (depositor defined):AID2013, AID2026]; type: functional
T3 sequence (Q9HC97 whole entry): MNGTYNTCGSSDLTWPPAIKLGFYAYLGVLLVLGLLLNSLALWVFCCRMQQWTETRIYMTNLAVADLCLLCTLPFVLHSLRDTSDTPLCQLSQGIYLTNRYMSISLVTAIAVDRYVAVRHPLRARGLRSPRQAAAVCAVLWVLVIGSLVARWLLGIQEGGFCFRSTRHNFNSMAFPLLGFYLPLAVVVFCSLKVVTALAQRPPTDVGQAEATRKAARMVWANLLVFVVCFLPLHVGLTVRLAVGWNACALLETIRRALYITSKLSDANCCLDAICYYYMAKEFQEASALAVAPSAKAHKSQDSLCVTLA

Cannabinoid receptor 1 [17] = molecular target: T4, Cannabinoid receptor 1 (Homo sapiens, UniProt P21554); assay: SAR analysis of agonists of the Cannabinoid Receptor 1 using an Image-Based Assay - Set 4. [Related pubchem assays (depositor defined):AID2013, AID2026]; type: functional
T4 sequence (P21554 whole entry): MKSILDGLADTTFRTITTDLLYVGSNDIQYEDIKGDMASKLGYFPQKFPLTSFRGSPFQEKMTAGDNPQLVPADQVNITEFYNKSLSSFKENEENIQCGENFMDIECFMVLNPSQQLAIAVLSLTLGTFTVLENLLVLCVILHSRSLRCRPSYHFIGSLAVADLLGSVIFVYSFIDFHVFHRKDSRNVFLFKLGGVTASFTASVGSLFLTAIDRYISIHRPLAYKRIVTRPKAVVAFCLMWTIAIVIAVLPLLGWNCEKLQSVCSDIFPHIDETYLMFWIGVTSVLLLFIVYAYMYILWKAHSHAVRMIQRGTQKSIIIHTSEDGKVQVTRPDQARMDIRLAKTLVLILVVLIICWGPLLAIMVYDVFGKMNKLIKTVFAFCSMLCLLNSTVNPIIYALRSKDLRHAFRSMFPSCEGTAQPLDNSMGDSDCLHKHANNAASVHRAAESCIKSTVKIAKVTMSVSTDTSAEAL

[18] = molecular target: T3, G-protein coupled receptor 35; assay: SAR analysis of Antagonists of the GPR35 Receptor using an Image-Based Assay - Set 6. [Related pubchem assays (depositor defined):AID2013, AID2026]; type: functional
Cannabinoid receptor 1 [19] = molecular target: T4, Cannabinoid receptor 1; assay: SAR analysis of antagonists of the Cannabinoid Receptor 1 using an Image-Based Assay - Set 4. [Related pubchem assays (depositor defined):AID2013, AID2026]; type: functional
[20] = molecular target: G-protein coupled receptor 55 (Homo sapiens, UniProt Q9Y2T6); assay: SAR Analysis of Selective Antagonists of GPR55 using an Image-Based Assay - Set 4. [Related pubchem assays (depositor defined):AID2013, AID2026]; type: functional;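 further: antagonism of response to 5 µM lysophosphatidylinositol agonist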
G-protein coupled receptor 55, sequence (Q9Y2T6 whole entry): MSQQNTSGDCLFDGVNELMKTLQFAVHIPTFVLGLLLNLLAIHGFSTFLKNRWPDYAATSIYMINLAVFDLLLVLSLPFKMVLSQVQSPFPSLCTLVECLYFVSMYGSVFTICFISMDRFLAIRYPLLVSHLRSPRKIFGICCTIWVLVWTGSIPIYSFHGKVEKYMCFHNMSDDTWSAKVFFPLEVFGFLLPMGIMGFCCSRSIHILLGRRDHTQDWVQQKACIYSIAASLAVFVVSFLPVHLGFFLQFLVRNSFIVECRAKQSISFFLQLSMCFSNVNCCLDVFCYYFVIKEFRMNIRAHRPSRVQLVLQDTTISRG

Cannabinoid receptor 2 [21] = molecular target: T5, Cannabinoid receptor 2 (Homo sapiens, UniProt P34972); assay: SAR analysis of antagonists of the Cannabinoid Receptor 2 using an Image-Based Assay - Set 3. [Related pubchem assays (depositor defined):AID2013, AID2026]; type: functional
T5 sequence (P34972 whole entry): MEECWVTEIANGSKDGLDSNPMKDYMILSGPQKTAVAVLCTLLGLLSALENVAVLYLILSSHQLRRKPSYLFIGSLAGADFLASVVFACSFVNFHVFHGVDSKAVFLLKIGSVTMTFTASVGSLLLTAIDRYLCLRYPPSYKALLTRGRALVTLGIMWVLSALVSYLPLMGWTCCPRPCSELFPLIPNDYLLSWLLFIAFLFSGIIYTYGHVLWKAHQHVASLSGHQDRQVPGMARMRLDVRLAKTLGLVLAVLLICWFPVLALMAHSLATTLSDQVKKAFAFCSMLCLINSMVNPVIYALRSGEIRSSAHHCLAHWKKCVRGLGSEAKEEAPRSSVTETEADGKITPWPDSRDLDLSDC

Cannabinoid receptor 2 [22] = molecular target: T5, Cannabinoid receptor 2; assay: SAR analysis of agonists of the Cannabinoid Receptor 2 using an Image-Based Assay - Set 3. [Related pubchem assays (depositor defined):AID2013, AID2026]; type: functional
[23] = molecular target: Alkaline phosphatase, placental type (Homo sapiens, UniProt P05187); assay: human placental alkaline phosphatase inhibition – biochemical, luminescence, confirmation (AID 1512); type: functional
Alkaline phosphatase, placental type, sequence (P05187 whole entry): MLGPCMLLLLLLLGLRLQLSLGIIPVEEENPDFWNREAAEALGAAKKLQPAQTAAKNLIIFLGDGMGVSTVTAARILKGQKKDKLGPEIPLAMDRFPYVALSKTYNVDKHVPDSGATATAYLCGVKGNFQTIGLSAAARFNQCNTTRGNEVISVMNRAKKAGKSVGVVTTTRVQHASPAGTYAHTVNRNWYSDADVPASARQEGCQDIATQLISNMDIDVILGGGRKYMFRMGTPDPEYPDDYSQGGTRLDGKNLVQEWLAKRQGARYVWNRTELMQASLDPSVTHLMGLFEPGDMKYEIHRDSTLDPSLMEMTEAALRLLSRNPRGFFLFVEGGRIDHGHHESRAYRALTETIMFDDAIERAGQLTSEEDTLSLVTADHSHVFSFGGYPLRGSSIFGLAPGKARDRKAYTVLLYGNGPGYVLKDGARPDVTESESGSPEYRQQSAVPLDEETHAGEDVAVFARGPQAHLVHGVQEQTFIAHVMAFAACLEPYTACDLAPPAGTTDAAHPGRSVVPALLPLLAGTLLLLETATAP

[24] = molecular target: T6, Alkaline phosphatase, tissue-nonspecific isozyme (Homo sapiens, UniProt P05186); assay: potency against alkaline phosphatase TNAP – biochemical, luminescent, dose response, SAR follow-up (AID 1056)
T6 sequence (P05186 whole entry): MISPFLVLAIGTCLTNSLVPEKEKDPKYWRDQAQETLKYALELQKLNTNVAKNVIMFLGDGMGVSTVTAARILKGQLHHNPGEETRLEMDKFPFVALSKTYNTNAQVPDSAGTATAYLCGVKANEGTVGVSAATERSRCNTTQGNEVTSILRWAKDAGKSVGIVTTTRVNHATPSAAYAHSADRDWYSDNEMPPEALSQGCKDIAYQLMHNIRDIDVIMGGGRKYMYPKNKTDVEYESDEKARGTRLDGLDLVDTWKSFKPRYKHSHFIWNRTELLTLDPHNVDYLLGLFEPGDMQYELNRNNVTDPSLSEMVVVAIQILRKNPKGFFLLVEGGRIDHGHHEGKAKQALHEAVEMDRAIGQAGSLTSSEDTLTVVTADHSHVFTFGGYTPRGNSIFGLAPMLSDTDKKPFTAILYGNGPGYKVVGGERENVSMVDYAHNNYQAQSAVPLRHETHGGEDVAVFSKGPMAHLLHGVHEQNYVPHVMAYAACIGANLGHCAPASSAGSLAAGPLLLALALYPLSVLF

CAAX prenyl protease 2 = CAAX prenyl protease 2 (Saccharomyces cerevisiae S288c, UniProt Q03530); type: biochemical
CAAX prenyl protease 2, sequence (Q03530 whole entry): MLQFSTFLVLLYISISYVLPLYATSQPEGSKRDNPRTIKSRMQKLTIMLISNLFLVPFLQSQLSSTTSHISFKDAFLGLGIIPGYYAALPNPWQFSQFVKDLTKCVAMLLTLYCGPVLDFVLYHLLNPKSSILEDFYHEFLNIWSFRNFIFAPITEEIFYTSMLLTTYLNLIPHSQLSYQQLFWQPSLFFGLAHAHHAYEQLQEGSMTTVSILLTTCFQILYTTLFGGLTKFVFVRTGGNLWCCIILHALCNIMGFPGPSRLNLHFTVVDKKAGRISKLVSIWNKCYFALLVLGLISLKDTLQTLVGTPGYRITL

NACHT, LRR and PYD domains-containing protein 3, sequence (Q96P20 whole entry, the tested form may be a part): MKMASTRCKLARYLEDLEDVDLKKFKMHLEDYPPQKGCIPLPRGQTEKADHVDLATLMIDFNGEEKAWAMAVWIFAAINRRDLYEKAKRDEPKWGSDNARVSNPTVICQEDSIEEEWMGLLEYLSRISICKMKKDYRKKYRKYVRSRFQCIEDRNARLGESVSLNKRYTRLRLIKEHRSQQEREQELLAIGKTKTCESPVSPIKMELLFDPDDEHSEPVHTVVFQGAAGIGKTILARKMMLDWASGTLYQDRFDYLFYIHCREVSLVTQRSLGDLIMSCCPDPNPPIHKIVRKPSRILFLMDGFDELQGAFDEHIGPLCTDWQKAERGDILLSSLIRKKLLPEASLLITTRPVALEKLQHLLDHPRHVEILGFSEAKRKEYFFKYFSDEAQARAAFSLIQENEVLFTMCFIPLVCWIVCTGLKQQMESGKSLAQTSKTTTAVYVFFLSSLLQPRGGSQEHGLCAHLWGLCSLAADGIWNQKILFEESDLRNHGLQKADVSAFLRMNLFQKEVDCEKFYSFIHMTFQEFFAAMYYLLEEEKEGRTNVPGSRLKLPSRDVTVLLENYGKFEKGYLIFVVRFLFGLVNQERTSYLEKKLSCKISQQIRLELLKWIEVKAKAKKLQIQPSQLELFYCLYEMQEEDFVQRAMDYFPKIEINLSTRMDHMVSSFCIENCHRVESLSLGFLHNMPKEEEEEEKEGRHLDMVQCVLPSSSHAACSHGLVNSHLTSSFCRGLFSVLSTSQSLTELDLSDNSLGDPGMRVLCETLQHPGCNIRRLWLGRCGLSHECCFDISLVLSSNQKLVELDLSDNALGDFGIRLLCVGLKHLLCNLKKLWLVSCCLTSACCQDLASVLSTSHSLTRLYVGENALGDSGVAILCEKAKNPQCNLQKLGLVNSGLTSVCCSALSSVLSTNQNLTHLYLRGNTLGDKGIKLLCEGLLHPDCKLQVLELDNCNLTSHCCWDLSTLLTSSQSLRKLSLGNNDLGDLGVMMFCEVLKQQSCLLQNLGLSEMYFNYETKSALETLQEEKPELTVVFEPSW

**Q.** For `CCOC(=O)c1ccc2c(c1)nc(COc1ccc(OC)cc1)n2CC`, which IC50 [1] is on record?
**A.** > 100 µM (inactive)

**Q.** For `Cc1cc(C)cc(Nc2nc(-c3ccc(S(=O)(=O)N4CCCC4)cc3)cs2)c1`, which AC50 [2] is on record?
**A.** > 350 µM (inactive)

**Q.** Which EC50 [3] does the source give for `Cc1cccc(OCc2n(C)c3ccccc3[n+]2CC(=O)OC2CC(C)CCC2C(C)C)c1` (configuration not stated) here?
**A.** 11.2 µM (inconclusive)

**Q.** And the EC50 [4]?
**A.** 0.736 µM (active)

**Q.** What about the EC50 [5] of the same compound?
**A.** 0.565 µM (active)

**Q.** And the CC50 [6]?
**A.** 18.8 µM (active)

**Q.** What about the EC50 [7] of the same compound?
**A.** > 60 µM (not active)

**Q.** What about the AC50 [8] of the same compound?
**A.** 3.49 µM (active)

**Q.** And the IC50 [9]?
**A.** > 20 µM (inactive)

**Q.** And the EC50 [10]?
**A.** 8.85 µM (active)

**Q.** What about the AC50 (INS1) of the same compound?
**A.** 3.61 µM (active)

**Q.** With `CCCOc1ccc(C(=O)NNC(=S)NC(=O)c2cccs2)cc1` as the compound, how does the EC50 [3] read?
**A.** 18.5 µM (active)

**Q.** And the EC50 [4]?
**A.** 0.391 µM (active)

**Q.** What about the IC50 [1] of the same compound?
**A.** 8.96 µM (active)

**Q.** What about the CC50 [11] of the same compound?
**A.** 5.22 µM (active)

**Q.** What about the CC50 [12] of the same compound?
**A.** 6.29 µM (active)

**Q.** And the EC50 [13]?
**A.** 3.76 µM (active)

**Q.** And the IC50 (cells)?
**A.** 0.5 µM (active)

**Q.** What about the IC50 (Vero [14]) of the same compound?
**A.** > 25 µM (active)

**Q.** And the CC50 (Vero [15])?
**A.** 15.6 µM (active)

**Q.** With `O=C(N1CCC(n2nc(-c3ccccc3)oc2=O)CC1)C1(c2ccccc2)CC1` as the compound, how does the EC50 [16] read?
**A.** > 32 µM (inactive)

**Q.** And the EC50 (Cannabinoid receptor 1 [17])?
**A.** > 32 µM (inactive)

**Q.** What about the IC50 [18] of the same compound?
**A.** > 32 µM (inactive)

**Q.** And the IC50 (Cannabinoid receptor 1 [19])?
**A.** 8.64 µM (active)

**Q.** What about the IC50 [20] of the same compound?
**A.** 17.4 µM (inactive)

**Q.** What about the IC50 (Cannabinoid receptor 2 [21]) of the same compound?
**A.** > 32 µM (inactive)

**Q.** And the EC50 (Cannabinoid receptor 2 [22])?
**A.** > 32 µM (inactive)

**Q.** For `CCN(CC)c1ccc(C(=O)CSc2nc(C)cc(C)n2)cc1`, which IC50 [23] is on record?
**A.** > 100 µM (inactive)

**Q.** And the IC50 [24]?
**A.** > 100 µM (inactive)

**Q.** For `Cc1ccc(-c2nnc(C)c3nn(-c4ccccc4)cc23)cc1`, which EC50 [16] is on record?
**A.** > 32 µM (inactive)

**Q.** What about the EC50 (Cannabinoid receptor 1 [17]) of the same compound?
**A.** > 32 µM (inactive)

**Q.** What about the IC50 [18] of the same compound?
**A.** > 32 µM (inactive)

**Q.** And the IC50 (Cannabinoid receptor 1 [19])?
**A.** 4.61 µM (active)

**Q.** And the IC50 [20]?
**A.** > 32 µM (inactive)

**Q.** What about the IC50 (Cannabinoid receptor 2 [21]) of the same compound?
**A.** > 32 µM (inactive)

**Q.** And the EC50 (Cannabinoid receptor 2 [22])?
**A.** > 32 µM (inactive)

**Q.** With `O=C(O)CNc1ccccc1C(=O)O` as the compound, how does the AC50 (CAAX prenyl protease 2) read?
**A.** 11.3 µM (active)
